We go through 22 compounds from patent publication US12565505B2, “mTORC modulators and uses thereof” (Aeovian Pharmaceuticals, Inc., priority 2019, dated 2026).

Each structure is given as a SMILES string. A value given as a limit tells only on which side of the number the result lay.

One experiment has as its target T1, mTORC2 (Homo sapiens, UniProt P42345+P62942).
T1 construct: endogenous in cells; host or cells: PC3 cells (human prostate adenocarcinoma)
Nature of the experiment: Inhibition assay for mTORC2: phosphorylation of pAkt at Ser473, AlphaLISA SureFire in PC3 cells. The class given is cell-based. The conditions noted are these: PC3 cells, 24 hours treatment, analogs substituted at C40 and C16 (C16 diastereomer mixtures not isolated), read-out: pIC50 mTORC2 (converted). On the procedure: The IC50s of the inhibition of mTORC1 and mTORC2 were determined in vitro by determining the phosphorylation of pS6K at position Thr389 (mTORC1 inhibition) and pAkt at Ser473 (mTORC2 inhibition). In vitro studies were performed with AiphaLISA® technology using PC3 cells (Prostate Adenocarcinoma; Human (Homo sapiens)). The cells were seeded in 96 well plates and were treated for 24 hours with the different compounds. […] All analysis were performed using GraphPad Prism 7.0 (GraphPad Software, San Diego, USA). […]

Another experiment concerns the target T2, mTORC1 (Homo sapiens, UniProt P42345+P62942).
T2 construct: endogenous in cells; host or cells: PC3 cells (human prostate adenocarcinoma)
Nature of the experiment: Inhibition assay for mTORC1: phosphorylation of pS6K at Thr389, AlphaLISA SureFire in PC3 cells. The settings on record: PC3 cells, 24 hours treatment, pS6K Thr389; analogs substituted at C40 and C16 (C16 diastereomer mixtures not isolated); read-out: pIC50 mTORC1 (converted). The class given is cell-based. On the procedure:
The IC50s of the inhibition of mTORC1 and mTORC2 were determined in vitro by determining the phosphorylation of pS6K at position Thr389 (mTORC1 inhibition) and pAkt at Ser473 (mTORC2 inhibition). In vitro studies were performed with AiphaLISA® technology using PC3 cells (Prostate Adenocarcinoma; Human (Homo sapiens)). The cells were seeded in 96 well plates and were treated for 24 hours with the different compounds. […] All analysis were performed using GraphPad Prism 7.0 (GraphPad Software, San Diego, USA).
Tables 5-7 include PIC50 values for mTORC1 of selected compounds; with compounds having an PIC50 for mTORC1 of >9.5 as A, 8.5 to 9.5 as B, and less than 8.5 as C.

As to `CO[C@@H]1C[C@H](C[C@@H](C)[C@@H]2CC(=O)[C@H](C)/C=C(\C)[C@@H](O)[C@@H](OC)C(=O)[C@H](C)C[C@H](C)/C=C/C=C/C=C(\C)C(OCCc3ccccc3)C[C@@H]3CC[C@@H](C)[C@@](O)(O3)C(=O)C(=O)N3CCCCC3C(=O)O2)CC[C@H]1OC(=O)NCCN1CCCCC1` (stereo partly drawn) [Compound 113], the IC50 was less than 1 µM at mTORC2 and less than 0.316 nM on mTORC1.

Turning to `CO[C@@H]1C[C@H](C[C@@H](C)[C@@H]2CC(=O)[C@H](C)/C=C(\C)[C@@H](O)[C@@H](OC)C(=O)[C@H](C)C[C@H](C)/C=C/C=C/C=C(\C)C(OCCC3CCOCC3)C[C@@H]3CC[C@@H](C)[C@@](O)(O3)C(=O)C(=O)N3CCCCC3C(=O)O2)CC[C@H]1OCCCO` (stereo partly drawn) [Compound 106], the values for the IC50 on mTORC2 and at mTORC1 were 1 to 10 µM and 0.316 to 3.16 nM, respectively.

For the compound `COCCOC1C[C@@H]2CC[C@@H](C)[C@@](O)(O2)C(=O)C(=O)N2CCCCC2C(=O)O[C@H]([C@H](C)C[C@@H]2CC[C@@H](OCCN3C[C@@H](C)O[C@@H](C)C3)[C@H](OC)C2)CC(=O)[C@H](C)/C=C(\C)[C@@H](O)[C@@H](OC)C(=O)[C@H](C)C[C@H](C)/C=C/C=C/C=C/1C` (stereo partly drawn) [Compound 81], the values for the IC50 on mTORC2 and at mTORC1 were 1 to 10 µM and 0.316 to 3.16 nM, respectively.

In the case of `CO[C@@H]1C[C@H](C[C@@H](C)[C@@H]2CC(=O)[C@H](C)/C=C(\C)[C@@H](O)[C@@H](OC)C(=O)[C@H](C)C[C@H](C)/C=C/C=C/C=C(\C)C(OC[C@H](O)c3ccccc3)C[C@@H]3CC[C@@H](C)[C@@](O)(O3)C(=O)C(=O)N3CCCCC3C(=O)O2)CC[C@H]1OCCO` (stereo partly drawn) [Compound 88], the IC50 on mTORC2 was 1 to 10 µM; on mTORC1, less than 0.316 nM.

In the case of `COCCOC1C[C@@H]2CC[C@@H](C)[C@@](O)(O2)C(=O)C(=O)N2CCCCC2C(=O)O[C@H]([C@H](C)C[C@@H]2CC[C@@H](OCCCN3CCO[C@H](C)C3)[C@H](OC)C2)CC(=O)[C@H](C)/C=C(\C)[C@@H](O)[C@@H](OC)C(=O)[C@H](C)C[C@H](C)/C=C/C=C/C=C/1C` (stereo partly drawn) [Compound 36], the IC50 on mTORC2 is 1 to 10 µM; at mTORC1, less than 0.316 nM.

Consider `CO[C@@H]1C[C@H](C[C@@H](C)[C@@H]2CC(=O)[C@H](C)/C=C(\C)[C@@H](O)[C@@H](OC)C(=O)[C@H](C)C[C@H](C)/C=C/C=C/C=C(\C)C(OCCO)C[C@@H]3CC[C@@H](C)[C@@](O)(O3)C(=O)C(=O)N3CCCCC3C(=O)O2)CC[C@H]1OC(=O)N(C)CCO` (stereo partly drawn) [Compound 83], for which the IC50 was 1 to 10 µM on mTORC2 and 0.316 to 3.16 nM on mTORC1.

Regarding `CO[C@@H]1C[C@H](C[C@@H](C)[C@@H]2CC(=O)[C@H](C)/C=C(\C)[C@@H](O)[C@@H](OC)C(=O)[C@H](C)C[C@H](C)/C=C/C=C/C=C(\C)C(OCCc3ccccc3)C[C@@H]3CC[C@@H](C)[C@@](O)(O3)C(=O)C(=O)N3CCCCC3C(=O)O2)CC[C@H]1OC(=O)N(C)CCN(C)C` (stereo partly drawn) [Compound 109], the values for the IC50 on mTORC2 and at mTORC1 were less than 1 µM and less than 0.316 nM, respectively.

As to `CO[C@@H]1C[C@H](C[C@@H](C)[C@@H]2CC(=O)[C@H](C)/C=C(\C)[C@@H](O)[C@@H](OC)C(=O)[C@H](C)C[C@H](C)/C=C/C=C/C=C(\C)C(OCCO)C[C@@H]3CC[C@@H](C)[C@@](O)(O3)C(=O)C(=O)N3CCCCC3C(=O)O2)CC[C@H]1OC(=O)NCCN1CCN(C)CC1` (stereo partly drawn) [Compound 76], the IC50 is greater than 10 µM on mTORC2 and 0.316 to 3.16 nM on mTORC1.

Turning to `CO[C@@H]1C[C@H](C[C@@H](C)[C@@H]2CC(=O)[C@H](C)/C=C(\C)[C@@H](O)[C@@H](OC)C(=O)[C@H](C)C[C@H](C)/C=C/C=C/C=C(\C)C(OCCO)C[C@@H]3CC[C@@H](C)[C@@](O)(O3)C(=O)C(=O)N3CCCC[C@H]3C(=O)O2)CC[C@H]1OCCCN1CCO[C@H](C)C1` (mixture of isomers) [Compound 13], the IC50 at mTORC2 was greater than 10 µM.

With `CO[C@@H]1C[C@H](C[C@@H](C)[C@@H]2CC(=O)[C@H](C)/C=C(\C)[C@@H](O)[C@@H](OC)C(=O)[C@H](C)C[C@H](C)/C=C/C=C/C=C(\C)C(OCCCCO)C[C@@H]3CC[C@@H](C)[C@@](O)(O3)C(=O)C(=O)N3CCCCC3C(=O)O2)CC[C@H]1OCCO` (stereo partly drawn) [Compound 63], the results for the IC50 on mTORC2 and on mTORC1 were 1 to 10 µM and less than 0.316 nM, respectively.

For `COCCCCOC1C[C@@H]2CC[C@@H](C)[C@@](O)(O2)C(=O)C(=O)N2CCCCC2C(=O)O[C@H]([C@H](C)C[C@@H]2CC[C@@H](OCCO)[C@H](OC)C2)CC(=O)[C@H](C)/C=C(\C)[C@@H](O)[C@@H](OC)C(=O)[C@H](C)C[C@H](C)/C=C/C=C/C=C/1C` (stereo partly drawn) [Compound 102], the figures for the IC50 at mTORC2 and on mTORC1 were 1 to 10 µM and less than 0.316 nM, respectively.

As for `CO[C@@H]1C[C@H](C[C@@H](C)[C@@H]2CC(=O)[C@H](C)/C=C(\C)[C@@H](O)[C@@H](OC)C(=O)[C@H](C)C[C@H](C)/C=C/C=C/C=C(\C)C(OCCOCCO)C[C@@H]3CC[C@@H](C)[C@@](O)(O3)C(=O)C(=O)N3CCCCC3C(=O)O2)CC[C@H]1OCCCO` (stereo partly drawn) [Compound 53], the IC50 is greater than 10 µM on mTORC2 and 0.316 to 3.16 nM on mTORC1.

On to `COCCOC1C[C@@H]2CC[C@@H](C)[C@@](O)(O2)C(=O)C(=O)N2CCCCC2C(=O)O[C@H]([C@H](C)C[C@@H]2CC[C@@H](OCCCN3CCC(O)CC3)[C@H](OC)C2)CC(=O)[C@H](C)/C=C(\C)[C@@H](O)[C@@H](OC)C(=O)[C@H](C)C[C@H](C)/C=C/C=C/C=C/1C` (stereo partly drawn) [Compound 85], for which the IC50 at mTORC2 is 1 to 10 µM; at mTORC1, 0.316 to 3.16 nM.

On to `CO[C@@H]1C[C@H](C[C@@H](C)[C@@H]2CC(=O)[C@H](C)/C=C(\C)[C@@H](O)[C@@H](OC)C(=O)[C@H](C)C[C@H](C)/C=C/C=C/C=C(\C)C(OCCO)C[C@@H]3CC[C@@H](C)[C@@](O)(O3)C(=O)C(=O)N3CCCCC3C(=O)O2)CC[C@H]1OCCCO` (stereo partly drawn) [Compound 10], for which the IC50 at mTORC2 was greater than 10 µM; at mTORC1, less than 0.316 nM.

`COCCOC1C[C@@H]2CC[C@@H](C)[C@@](O)(O2)C(=O)C(=O)N2CCCCC2C(=O)O[C@H]([C@H](C)C[C@@H]2CC[C@@H](OCCCN3CCC[C@H](O)C3)[C@H](OC)C2)CC(=O)[C@H](C)/C=C(\C)[C@@H](O)[C@@H](OC)C(=O)[C@H](C)C[C@H](C)/C=C/C=C/C=C/1C` (stereo partly drawn) [Compound 54]: the results for the IC50 at mTORC2 and at mTORC1 were 1 to 10 µM and less than 0.316 nM, respectively.

For the compound `CO[C@@H]1C[C@H](C[C@@H](C)[C@@H]2CC(=O)[C@H](C)/C=C(\C)[C@@H](O)[C@@H](OC)C(=O)[C@H](C)C[C@H](C)/C=C/C=C/C=C(\C)C(OCCO)C[C@@H]3CC[C@@H](C)[C@@](O)(O3)C(=O)C(=O)N3CCCCC3C(=O)O2)CC[C@H]1OC(=O)NCCn1cnnn1` (stereo partly drawn) [Compound 89], the IC50 was 1 to 10 µM on mTORC2 and 0.316 to 3.16 nM at mTORC1.

Turning to `COCCOC1C[C@@H]2CC[C@@H](C)[C@@](O)(O2)C(=O)C(=O)N2CCCCC2C(=O)O[C@H]([C@H](C)C[C@@H]2CC[C@@H](OCCCO)[C@H](OC)C2)CC(=O)[C@H](C)/C=C(\C)[C@@H](O)[C@@H](OC)C(=O)[C@H](C)C[C@H](C)/C=C/C=C/C=C/1C` (stereo partly drawn) [Compound 28], the IC50 was 1 to 10 µM on mTORC2 and less than 0.316 nM at mTORC1.

Consider `COCCCO[C@@H]1CC[C@@H](C[C@@H](C)[C@@H]2CC(=O)[C@H](C)/C=C(\C)[C@@H](O)[C@@H](OC)C(=O)[C@H](C)C[C@H](C)/C=C/C=C/C=C(\C)C(OCCO)C[C@@H]3CC[C@@H](C)[C@@](O)(O3)C(=O)C(=O)N3CCCCC3C(=O)O2)C[C@H]1OC` (stereo partly drawn) [Compound 3], for which the IC50 is greater than 10 µM at mTORC2 and less than 0.316 nM on mTORC1.

For the compound `COCCOCCOC1C[C@@H]2CC[C@@H](C)[C@@](O)(O2)C(=O)C(=O)N2CCCCC2C(=O)O[C@H]([C@H](C)C[C@@H]2CC[C@@H](OCCO)[C@H](OC)C2)CC(=O)[C@H](C)/C=C(\C)[C@@H](O)[C@@H](OC)C(=O)[C@H](C)C[C@H](C)/C=C/C=C/C=C/1C` (stereo partly drawn) [Compound 20], the values for the IC50 on mTORC2 and at mTORC1 were greater than 10 µM and less than 0.316 nM, respectively.

Turning to `COCCOC1C[C@@H]2CC[C@@H](C)[C@@](O)(O2)C(=O)C(=O)N2CCCCC2C(=O)O[C@H]([C@H](C)C[C@@H]2CC[C@@H](OCCCN3CCN(C)CC3)[C@H](OC)C2)CC(=O)[C@H](C)/C=C(\C)[C@@H](O)[C@@H](OC)C(=O)[C@H](C)C[C@H](C)/C=C/C=C/C=C/1C` (stereo partly drawn) [Compound 32], the IC50 at mTORC2 is 1 to 10 µM; at mTORC1, less than 0.316 nM.

Turning to `COCCCO[C@@H]1CC[C@@H](C[C@@H](C)[C@@H]2CC(=O)[C@H](C)/C=C(\C)[C@@H](O)[C@@H](OC)C(=O)[C@H](C)C[C@H](C)/C=C/C=C/C=C(\C)C(OCCOC)C[C@@H]3CC[C@@H](C)[C@@](O)(O3)C(=O)C(=O)N3CCCCC3C(=O)O2)C[C@H]1OC` (stereo partly drawn) [Compound 14], the IC50 at mTORC2 was greater than 10 µM; on mTORC1 it was less than 0.316 nM.

Take `CO[C@@H]1C[C@H](C[C@@H](C)[C@@H]2CC(=O)[C@H](C)/C=C(\C)[C@@H](O)[C@@H](OC)C(=O)[C@H](C)C[C@H](C)/C=C/C=C/C=C(\C)C(OCCO)C[C@@H]3CC[C@@H](C)[C@@](O)(O3)C(=O)C(=O)N3CCCCC3C(=O)O2)CC[C@H]1OCCCN1CCO[C@H](C)C1` (stereo partly drawn) [Compound 43]: on mTORC2, the IC50 is 1 to 10 µM.
